In US4311645A, “Synthesis of SRS-active compounds” (Hoffmann-La Roche Inc., priority 1980, dated 1982):
Structures can show the parent of a compound that is named as a salt. Where two headings read alike, the source gives them in different places.

Experiments:
guinea pig ileum = experiment: SRS-A activity: contraction of isolated guinea pig ileum (bioassay); type: cell-based; settings: read-out: EC50 (concentration giving 50% of the maximal contraction of the ileum produced by natural SRS-A), 37° C, atropine sulfate 10^-6 M and pyrilamine maleate 10^-6 M in bath, average ± S.E., n = 2-5 ileums
Experimental: SRS-A was assayed utilizing the procedure described by Orange and Austen, J. Immunol. […] The segment of ileum was suspended in a 10 ml organ bath containing Tyrodes solution. The ileum was attached to a strain gauge transducer and contractions were recorded on a strip chart recorder. The bath contained 10^-6 M atropine sulfate to block contractions which might be caused by acetylcholine and 10^-6 M pyrilamine maleate to block histamine-induced contractions. The bath was maintained at 37° C. and gassed with a mixture of 95% O2 and 5% CO2. The concentration of SRS-A in the filtrate obtained by challenging lung tissue with egg albumin was determined by comparing the contraction solicited by a given volume of the filtrate with the contraction elicited by […] of histamine (in the absence of pyrilamine maleate). One unit of SRS-A is equivalent to that quantity which will give the same contraction as this amount of histamine. […] After standardization, this SRS-A was stored in small aliquots at -80° C. for further use.

Compound E = experiment: Inhibition of contraction of guinea pig ileum induced by Compound E; type: cell-based; settings: Cavia porcellus
natural SRS-A = experiment: Inhibition of contraction of guinea pig ileum induced by natural SRS-A; type: cell-based; settings: Cavia porcellus; read-out: IC50 against natural SRS-A
Experimental: (§1) SRS-A was assayed utilizing the procedure described by Orange and Austen, J. Immunol. 10, 105 (1969) as follows: a 1.5 cm segment of ileum was removed from male guinea pigs weighing from 250 to 300 grams. The segment of ileum was suspended in a 10 ml organ bath containing Tyrodes solution. The ileum was attached to a strain gauge transducer and contractions were recorded on a strip chart recorder. The bath contained 10^-6 M atropine sulfate to block contractions which might be caused by acetylcholine and 10^-6 M pyrilamine maleate to block histamine-induced contractions. The bath was maintained at 37° C. and gassed with a mixture of 95% O2 and 5% CO2. The concentration of SRS-A in the filtrate obtained by challenging lung tissue with egg albumin was determined by comparing the contraction solicited by a given volume of the filtrate with the contraction elicited by […] of histamine (in the absence of pyrilamine maleate). One unit of SRS-A is equivalent to that quantity which will give the same contraction as this amount of histamine. […] After standardization, this SRS-A was stored in small aliquots at -80° C. for further use. […]
(§2) The assay was carried out as described in Example 23. […] The difference in the level of the contraction obtained in the absence and presence of varying concentrations of Compound I was determined. […]

Compound B = experiment: Inhibition of contraction of guinea pig ileum induced by Compound B; type: cell-based; settings: Compound B at its EC50, n=1, extrapolated from graph
Experimental: as §1, §2

[1] = background, literature; cited from earlier work

CCCCCC#CCC#C/C=C/C=C/[C@@H](SC[C@H](N)C(=O)O)[C@@H](O)CCCC(=O)O [D, (5S,6R) (E,E)-S-(5-hydroxy-1-hydroxy-1-oxoeicosa-7,9-dien-11,14-diyn-6-yl)-L-cysteine mono ammonium salt]
EC50 (guinea pig ileum; Cavia porcellus): 1100 nM

(5R,6S) (E,E,Z,Z)-S-(5-hydroxy-1-methoxy-1-oxoeicosa-7,9,11,14-tetraen-6-yl)-L-cysteine mono ammonium salt
EC50 (guinea pig ileum): 28 nM

CCCc1c(OCC(O)COc2ccc3c(=O)cc(C(=O)O)oc3c2CCC)ccc(C(C)=O)c1O (centres unmarked) [Compound I, 7-[3-(4-acetyl-3-hydroxy-2-propylphenoxy)-2-hydroxypropoxy]-4-oxo-8-propyl-4H-benzopyran-2-carboxylic acid]
IC50 (Compound E; read-out: IC50 against Compound E): 40 nM
IC50 (natural SRS-A): 37 nM
IC50 (Compound B; Cavia porcellus, read-out: IC50 against Compound B, 3 min preincubation): 35 nM
IC50 (Compound B; read-out: IC50 against Compound B, 3 min preincubation): 40 nM

CCCCCC=CCC=CC=CC=CC(SCC(N)C(=O)O)C(O)CCCC(=O)O (centres unmarked) [compound obtained by Samuelsson]
SRS-A activity [1]: found to have SRS-A activity

CCCCCC#CCC#C/C=C/C=C/[C@H]1O[C@@H]1CCCC(=O)OC (relative stereo) [(R,S) (All E)-3-(1,3-tetradecadien-5,8-diynyl)-trans-oxiranebutanoic acid methyl ester]
IC50 (Compound E; Example 26, SRS-A active compound used: Compound E, n=1, read-out: IC50 (antagonist against synthetic Compound E)): 10000 nM
